Drawing on PubChem BioAssay AID248 (DTP/NCI, 2004), this text covers T/C for 19 compounds.

The subject of this assay is L1210 leukemia ip in BDF1 mice, survival T/C. The assay can be described thus: NCI In Vivo Anticancer Drug Screen. Data for tumor model L1210 Leukemia (intraperitoneal) in B6D2F1 (BDF1) mice. To be noted: endpoint: mean survival time, higher = longer survival. The method in brief: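 Value reflects the ratio of survival in compound-treated mice to survival in vehicle-treated controls, with both groups carrying the same transplanted tumor.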

Where [1] appears, read: dose: 100.0 mg/kg/injection, schedule: Q04DX003 (ip), vehicle: Klucel (hydroxypropylcellulose) (HPC).
[2] abbreviates: dose: 400.0 mg/kg/injection, schedule: Q04DX003 (ip), vehicle: Klucel (hydroxypropylcellulose) (HPC).
Where [3] appears, read: dose: 100.0 mg/kg/injection, schedule: Q01DX001 (ip), vehicle: saline.
Setting [4] is: dose: 200.0 mg/kg/injection, schedule: Q01DX001 (ip), vehicle: saline.
The mark [5] stands for this setting: dose: 400.0 mg/kg/injection, schedule: Q01DX001 (ip), vehicle: saline.
The mark [6] stands for this setting: dose: 100.0 mg/kg/injection, schedule: Q01DX009 (ip), vehicle: saline with Tween-80.
[7] abbreviates: dose: 100.0 mg/kg/injection, schedule: Q04DX003 (ip), vehicle: saline with Tween-80.
Setting [8] is: dose: 200.0 mg/kg/injection, schedule: Q01DX009 (ip), vehicle: saline with Tween-80.
The mark [9] stands for this setting: dose: 200.0 mg/kg/injection, schedule: Q04DX003 (ip), vehicle: saline with Tween-80.
The mark [10] stands for this setting: dose: 400.0 mg/kg/injection, schedule: Q01DX009 (ip), vehicle: saline with Tween-80.
Setting [11] is: dose: 400.0 mg/kg/injection, schedule: Q04DX003 (ip), vehicle: saline with Tween-80.
The mark [12] stands for this setting: dose: 200.0 mg/kg/injection, schedule: Q04DX003 (ip), vehicle: Klucel (hydroxypropylcellulose) (HPC).
[13] abbreviates: dose: 50.0 mg/kg/injection, schedule: Q01DX009 (ip), vehicle: Klucel (hydroxypropylcellulose) (HPC).
[14] abbreviates: dose: 100.0 mg/kg/injection, schedule: Q01DX009 (ip), vehicle: Klucel (hydroxypropylcellulose) (HPC).
The mark [15] stands for this setting: dose: 200.0 mg/kg/injection, schedule: Q01DX009 (ip), vehicle: Klucel (hydroxypropylcellulose) (HPC).

Values joined by “and” are separate entries in the source; they are usually repeats but may differ in a detail not shown here. Identical values can stand only once. Inconclusive results and toxic doses are left out.

As for `CCCCCCCCCCCCCCCC(=O)Nc1ccc(Cl)c(Cl)c1`, the T/C (dose: 50.0 mg/kg/injection, schedule: Q04DX003 (ip), vehicle: carboxymethylcellulose (CMC)) was 87 % of control; the T/C (dose: 100.0 mg/kg/injection, schedule: Q01DX001 (ip), vehicle: carboxymethylcellulose (CMC)) was 89 % of control; the T/C (dose: 100.0 mg/kg/injection, schedule: Q01DX009 (ip), vehicle: carboxymethylcellulose (CMC)) was 102 % of control and 89 % of control; the T/C (dose: 100.0 mg/kg/injection, schedule: Q04DX002 (ip), vehicle: other) is 92 % of control and 101 % of control; the T/C (dose: 100.0 mg/kg/injection, schedule: Q04DX003 (ip), vehicle: carboxymethylcellulose (CMC)) is 95 % of control; the T/C (dose: 200.0 mg/kg/injection, schedule: Q01DX001 (ip), vehicle: carboxymethylcellulose (CMC)) is 90 % of control. Also, the T/C (dose: 200.0 mg/kg/injection, schedule: Q01DX009 (ip), vehicle: carboxymethylcellulose (CMC)) was 96 % of control and 86 % of control; the T/C (dose: 200.0 mg/kg/injection, schedule: Q04DX002 (ip), vehicle: other) was 93 % of control and 89 % of control; the T/C (dose: 200.0 mg/kg/injection, schedule: Q04DX003 (ip), vehicle: carboxymethylcellulose (CMC)) was 87 % of control; the T/C (dose: 400.0 mg/kg/injection, schedule: Q01DX009 (ip), vehicle: carboxymethylcellulose (CMC)) was 93 % of control and 86 % of control; the T/C (dose: 400.0 mg/kg/injection, schedule: Q04DX002 (ip), vehicle: other) is 93 % of control and 94 % of control.
As for `S=c1ncn(C2CCCCC2)c(=S)[nH]1`, the T/C is, setting by setting: under setting [1], 95 % of control; under setting [2], 102 % of control.
In the case of `COC1OCC(OC(C)=O)C(NC(C)=O)C1OC(C)=O` (stereo not drawn), the T/C was 100 % of control under setting [3], 101 % of control under setting [4] and 111 % of control under setting [5].
`COc1ccc(OCC(=O)O)c(C=O)c1`: the T/C was 95 % of control under setting [6]; 115 % of control under setting [7]; 93 % of control under setting [8]; 96 % of control under setting [9]; 91 % of control under setting [10]; 106 % of control under setting [11].
Consider `CC(O)C(O)CC(/C=N/NC(=O)c1ccccc1)=N/NC(=O)c1ccccc1` (stereo not drawn), for which the T/C was 107 % of control under setting [1], 115 % of control under setting [12] and 109 % of control under setting [2].
The like results for `C=C(C)C1CCC2(C(=O)O)CCC3(C)C(CCC4C5(C)CCC(=O)C(C)(C)C5CCC43C)C12` (stereo not drawn) were, in that order, 102 % of control, 96 % of control and 94 % of control.
Turning to `Cn1cnc([N+](=O)[O-])c1[Se]c1nc(N)nc2c1ncn2C1CC(O)C(CO)O1` (stereo not drawn), the T/C runs as follows: (dose: 16.5 mg/kg/injection, schedule: Q01DX005 (ip), vehicle: saline) 159 % of control; (dose: 25.0 mg/kg/injection, schedule: Q01DX005 (ip), vehicle: saline) 202 % of control; (dose: 25.0 mg/kg/injection, schedule: Q01DX009 (ip), vehicle: saline) 150 % of control; (dose: 37.5 mg/kg/injection, schedule: Q01DX005 (ip), vehicle: saline) 219 % of control; (dose: 37.5 mg/kg/injection, schedule: Q01DX009 (ip), vehicle: saline) 158 % of control; (dose: 50.0 mg/kg/injection, schedule: Q01DX005 (ip), vehicle: saline) 98 % of control. In addition, the T/C is 117 % of control (dose: 62.5 mg/kg/injection, schedule: Q01DX005 (ip), vehicle: saline) and 105 % of control (dose: 62.5 mg/kg/injection, schedule: Q01DX009 (ip), vehicle: saline).
For `CCCC(=O)Nc1cccc2ccccc12`, the T/C (dose: 100.0 mg/kg/injection, schedule: Q04DX002 (ip), vehicle: Klucel (hydroxypropylcellulose) (HPC)) is 117 % of control and the T/C (dose: 200.0 mg/kg/injection, schedule: Q04DX002 (ip), vehicle: Klucel (hydroxypropylcellulose) (HPC)) was 107 % of control.
For the compound `OCc1cc(Cl)cc(Cl)c1O`, the T/C reads like this: under setting [6], 97 % of control; under setting [7], 97 % of control; under setting [9], 98 % of control; under setting [11], 101 % of control.
As for `Cc1ccc([N+](=O)[O-])cc1/C=C/C(=O)O`, the T/C runs as follows: (dose: 100.0 mg/kg/injection, schedule: Q04DX003 (ip), vehicle: saline) 106 % of control; (dose: 200.0 mg/kg/injection, schedule: Q04DX003 (ip), vehicle: saline) 93 % of control; (dose: 400.0 mg/kg/injection, schedule: Q04DX003 (ip), vehicle: saline) 104 % of control.
For the compound `O=S(=O)(NS(=O)(=O)c1ccc(Cl)cc1)c1ccc(Cl)cc1`, the T/C by setting is: under setting [13], 93 % of control; under setting [14], 96 % of control; under setting [1], 88 % of control; under setting [15], 104 % of control; under setting [12], 87 % of control.
Consider `Cc1nc(N)[nH]c(=O)c1CCCCc1ccccc1`, for which the T/C is 98 % of control under setting [13], 102 % of control under setting [14] and 95 % of control under setting [15].
As for `CN1C2CCC1CC(=O)C2`, the T/C runs as follows: (dose: 75.0 mg/kg/injection, schedule: Q01DX001 (ip), vehicle: saline) 103 % of control; (dose: 150.0 mg/kg/injection, schedule: Q01DX001 (ip), vehicle: saline) 102 % of control.
On to `Cc1ccc(-n2c(O)c(N=Nc3ccc(Cl)cc3)c(=O)n(-c3ccc(C)cc3)c2=S)cc1`, for which the T/C (dose: 37.5 mg/kg/injection, schedule: Q01DX001 (ip), vehicle: Klucel (hydroxypropylcellulose) (HPC)) was 97 % of control; the T/C (dose: 75.0 mg/kg/injection, schedule: Q01DX001 (ip), vehicle: Klucel (hydroxypropylcellulose) (HPC)) was 107 % of control; the T/C (dose: 150.0 mg/kg/injection, schedule: Q01DX001 (ip), vehicle: Klucel (hydroxypropylcellulose) (HPC)) was 96 % of control.
In the case of `CCOC(=O)/C=C(\C)C(C)(C)C(C)=O`, the T/C under setting [3] is 90 % of control, the T/C under setting [4] was 101 % of control and the T/C under setting [5] is 98 % of control.
In the case of `Oc1c(Cl)cc(Cl)c(Cl)c1Cc1c(O)c(Cl)cc(Cl)c1Cl`, the T/C (dose: 12.5 mg/kg/injection, schedule: Q04DX003 (ip), vehicle: Klucel (hydroxypropylcellulose) (HPC)) was 109 % of control; the T/C (dose: 25.0 mg/kg/injection, schedule: Q04DX003 (ip), vehicle: Klucel (hydroxypropylcellulose) (HPC)) is 100 % of control; the T/C (dose: 50.0 mg/kg/injection, schedule: Q04DX003 (ip), vehicle: Klucel (hydroxypropylcellulose) (HPC)) was 98 % of control.
`CCOC(=O)CNC(=O)C(CSCc1cccs1)NC(=O)OCc1ccccc1` (stereo not drawn): the T/C runs as follows: under setting [6], 100 % of control; under setting [8], 94 % of control; under setting [10], 90 % of control.
Consider `ClCCN(CCN(CCCl)c1ccccc1)c1ccccc1`, for which the T/C is 113 % of control under setting [14]; 108 % of control under setting [15]; 115 % of control (dose: 400.0 mg/kg/injection, schedule: Q01DX009 (ip), vehicle: Klucel (hydroxypropylcellulose) (HPC)).
Turning to `CC(Cl)[N+](=O)[O-]` (stereo not drawn), the T/C is, setting by setting: (dose: 100.0 mg/kg/injection, schedule: Q04DX002 (ip), vehicle: saline with Tween-80) 94 % of control; (dose: 200.0 mg/kg/injection, schedule: Q04DX002 (ip), vehicle: saline with Tween-80) 94 % of control; (dose: 400.0 mg/kg/injection, schedule: Q04DX002 (ip), vehicle: saline with Tween-80) 98 % of control.
